Test results taken from US9850283B2, “Macrocyclic inhibitors of the PD-1/PD-L1 and CD80(B7-1)/PD-L1 protein/protein interactions” (BRISTOL-MYERS SQUIBB COMPANY, priority 2013, dated 2017).
Read-outs that look alike come from different tables or passages of the source. Positions of bridges follow the written chain, without caps; N, C: chain ends. Non-standard residues stand in square brackets, D forms with d. Residues, ends and D or L forms follow the SMILES beside them. Phe(2,4-Cl2) = N[C@@H](Cc1ccc(Cl)cc1Cl)C(=O)O; Phe(4-CH2NH2) = NCc1ccc(C[C@H](N)C(=O)O)cc1; Hyp = O=C(O)[C@@H]1C[C@@H](O)CN1; NMeF = CN[C@@H](Cc1ccccc1)C(=O)O; NMeNle = CCCC[C@H](NC)C(=O)O; NMeA = CN[C@@H](C)C(=O)O; Orn = NCCC[C@H](N)C(=O)O; Dab = NCC[C@H](N)C(=O)O; Sar = CNCC(=O)O

Tests used:
[1] = target: T1, Human PD-L1/PD-1 (Homo sapiens, UniProt Q9NZQ7); experiment: HTRF PD-1-Ig/PD-L1-His binding assay (human PD-L1)
T1 construct: made in house; host or cells: HEK293T
Method in brief: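 Readout: time-resolved FRET between Eu cryptate-labeled anti-Ig (1 nM final) and APC-labeled anti-His (20 nM final) antibodies. These detect interaction of Fc-fused PD-1 with His-tagged human PD-L1 in dPBS containing 0.1% BSA and 0.05% Tween-20.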

[2] = target: T2, LK35.2-hPD-L1 cells / PE-labeled PD-1-Ig (Homo sapiens, UniProt Q9NZQ7); experiment: LK35.2-hPD-L1 cell binding high-content screening assay; type: cell-based; details: cell binding assay, cell line not given
T2 construct: expressed in transfected cells; host or cells: LK35.2 mouse B cell line
Method in brief: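 Compound effect on PD-1/PD-L1 binding is measured by imaging cell-associated phycoerythrin signal. Human PD-1-Ig (PE on Ig tag, 1 nM final) is applied with compound to a murine B cell line overexpressing human PD-L1 for 1 h at 37 °C in serum-containing RPMI.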

[3] = cluster symbol, read-out: HTRF IC50 cluster
[4] = cluster symbol, read-out: CBA IC50 cluster

T2 sequence (Q9NZQ7 19-290): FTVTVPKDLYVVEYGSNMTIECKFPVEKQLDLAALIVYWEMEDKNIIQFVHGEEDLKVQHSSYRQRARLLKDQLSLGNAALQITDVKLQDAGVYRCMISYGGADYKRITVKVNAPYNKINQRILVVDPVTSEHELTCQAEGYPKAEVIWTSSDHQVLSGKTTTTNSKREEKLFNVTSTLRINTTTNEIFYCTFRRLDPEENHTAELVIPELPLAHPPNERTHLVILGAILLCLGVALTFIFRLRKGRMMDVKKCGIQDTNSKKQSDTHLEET
T1 sequence (Q9NZQ7 with tags, fused parts or gaps): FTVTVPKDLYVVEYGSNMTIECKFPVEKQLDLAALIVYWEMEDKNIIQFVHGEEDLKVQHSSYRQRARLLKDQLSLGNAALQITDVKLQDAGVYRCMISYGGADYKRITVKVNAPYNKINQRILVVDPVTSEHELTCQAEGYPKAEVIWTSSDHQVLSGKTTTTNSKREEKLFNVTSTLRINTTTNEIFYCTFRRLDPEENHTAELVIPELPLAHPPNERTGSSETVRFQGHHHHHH

| IC50 [1, 3] | IC50 [2, 4] | IC50 ([1]; value given instead of cluster, read-out: HTRF IC50 value) | IC50 ([2]; value given instead of cluster, read-out: CBA IC50 value) | Compound |
| --- | --- | --- | --- | --- |
| 6.76 to 30.3 nM | 0.158 to 4.71 nM |  |  | CCCC[C@H]1C(=O)N(C)CC(=O)N[C@@H](CC(=O)O)C(=O)N[C@@H](C(C)C)C(=O)N(C)[C@@H](Cc2ccccc2)C(=O)N[C@@H](Cc2ccc(CN)cc2)C(=O)N(C)CC(=O)N[C@@H](Cc2c[nH]c3ccccc23)C(=O)N[C@@H](Cc2ccc(O)cc2)C(=O)N[C@@H](CC(C)C)C(=O)N[C@H](C(=O)NCC(N)=O)CSCC(=O)N[C@@H](Cc2ccccc2)C(=O)N(C)[C@@H](Cc2ccccc2)C(=O)N1C [Example 3524] ({CH2CO}-F[NMeF][NMeNle][Sar]DV[NMeF][Phe(4-CH2NH2)][Sar]WYLCG-NH2; thioether N-13) |
| 0.385 to 6.74 nM | 0.158 to 4.71 nM |  |  | CCCC[C@H]1C(=O)N(C)[C@@H](CCCC)C(=O)N[C@@H](CCCNC(=N)N)C(=O)N[C@H](C(=O)NCC(N)=O)CSCC(=O)N[C@@H](Cc2ccc(O)cc2)C(=O)N(C)[C@@H](C)C(=O)N[C@@H](CCCN)C(=O)N2CCC[C@H]2C(=O)N[C@@H](Cc2c[nH]cn2)C(=O)N[C@@H](CCC(=O)O)C(=O)N2C[C@H](O)C[C@H]2C(=O)N[C@@H](Cc2c[nH]c3ccccc23)C(=O)N[C@@H](CO)C(=O)N[C@@H](Cc2c[nH]c3ccccc23)C(=O)N1C [Example 5113] ({CH2CO}-Y[NMeA][Orn]PHE[Hyp]WSW[NMeNle][NMeNle]RCG-NH2; thioether N-14) |
| 0.385 to 6.74 nM | 4.78 to 72.9 nM |  |  | CCCC[C@H]1C(=O)N(C)[C@@H](CCCC)C(=O)N[C@@H](CCC(=O)O)C(=O)N[C@H](C(=O)NCC(N)=O)CSCC(=O)N[C@@H](Cc2ccc(O)cc2)C(=O)N(C)[C@@H](C)C(=O)N[C@@H](CC(=O)O)C(=O)N2CCC[C@H]2C(=O)N[C@@H](Cc2c[nH]cn2)C(=O)N[C@@H](CCCCN)C(=O)N2C[C@H](O)C[C@H]2C(=O)N[C@@H](Cc2c[nH]c3ccccc23)C(=O)N[C@@H](CO)C(=O)N[C@@H](Cc2c[nH]c3ccccc23)C(=O)N1C [Example 5098] ({CH2CO}-Y[NMeA]DPHK[Hyp]WSW[NMeNle][NMeNle]ECG-NH2; thioether N-14) |
| 0.385 to 6.74 nM | 0.158 to 4.71 nM |  |  | CCCC[C@H]1C(=O)N(C)[C@@H](CCSC)C(=O)N[C@@H](CCCNC(=N)N)C(=O)NC(C(=O)NCC(N)=O)CSCC(=O)N[C@@H](Cc2ccc(O)cc2)C(=O)N(C)[C@@H](C)C(=O)N[C@@H](CC(N)=O)C(=O)N2CCC[C@H]2C(=O)N[C@@H](Cc2cnc[nH]2)C(=O)N[C@@H](CC(C)C)C(=O)N2C[C@H](O)C[C@H]2C(=O)N[C@@H](Cc2c[nH]c3ccccc23)C(=O)N[C@@H](CO)C(=O)N[C@@H](Cc2c[nH]c3ccccc23)C(=O)N1C (stereo partly drawn) [Example 9024] |
|  |  | 272 nM | 728 nM | CCCC[C@H]1C(=O)N(C)CC(=O)N[C@@H](CC(=O)O)C(=O)N[C@@H](C(C)C)C(=O)N(C)[C@@H](Cc2ccccc2)C(=O)N[C@@H](Cc2ccc(O)cc2)C(=O)N(C)CC(=O)N[C@@H](Cc2ccc(Cl)cc2Cl)C(=O)N[C@@H](Cc2ccc(O)cc2)C(=O)N[C@@H](CC(C)C)C(=O)N[C@H](C(=O)NCC(N)=O)CSCC(=O)N[C@@H](Cc2ccccc2)C(=O)N(C)[C@@H](Cc2ccccc2)C(=O)N1C [Example 3549] ({CH2CO}-F[NMeF][NMeNle][Sar]DV[NMeF]Y[Sar][Phe(2,4-Cl2)]YLCG-NH2; thioether N-13) |
| 6.76 to 30.3 nM | 0.158 to 4.71 nM |  |  | CCCC[C@H]1C(=O)N(C)[C@@H](CCCC)C(=O)N[C@@H](CCCNC(=N)N)C(=O)N[C@H](C(=O)NCC(N)=O)CSCC(=O)N[C@@H](Cc2ccc(O)cc2)C(=O)N(C)[C@@H](C)C(=O)N[C@@H](CC(N)=O)C(=O)N2CCC[C@H]2C(=O)N[C@@H](Cc2cnc[nH]2)C(=O)N[C@@H](CCN)C(=O)N2C[C@H](O)C[C@H]2C(=O)N[C@@H](Cc2c[nH]c3ccccc23)C(=O)N[C@@H](CO)C(=O)N[C@@H](Cc2c[nH]c3ccccc23)C(=O)N1C [Example 5022] ({CH2CO}-Y[NMeA]NPH[Dab][Hyp]WSW[NMeNle][NMeNle]RCG-NH2; thioether N-14) |
